Measured values reported in PubChem BioAssay AID1963827 (Molecular Pharmacology Branch, DTP, NCI, 2024).

Test system: 994946-033-R-J1-PDC complex spheroid viability
Assay: Anticancer human tumor 994946-033-R-J1-PDC patient-derived melanoma cell line growth inhibition [POLQ]
Conditions: for IC50: curve of first compound; for viability, T/C: stronger effect = lower value
Method in brief: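 Growth inhibition in 3D: complex spheroids (tumor PDC, HUVEC, MSC) treated with POLQ inhibitor combinations; where Cmax unknown, highest tested concentration 10 microM, except SN-38 at 1 microM.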

[1] = second compound 0.0316 µM, first compound 0.0316 µM
[2] = second compound 0.0316 µM, first compound 0.1 µM
[3] = second compound 0.0316 µM, first compound 0.316 µM
[4] = second compound 0.0316 µM, first compound 1 µM
[5] = second compound 0.0316 µM, first compound 3.16 µM
[6] = second compound 0.0316 µM, first compound 10 µM
[7] = second compound 0.1 µM, first compound 0.0316 µM
[8] = second compound 0.1 µM, first compound 0.1 µM
[9] = second compound 0.1 µM, first compound 0.316 µM
[10] = second compound 0.1 µM, first compound 1 µM
[11] = second compound 0.1 µM, first compound 3.16 µM
[12] = second compound 0.1 µM, first compound 10 µM
[13] = second compound 0.316 µM, first compound 0.0316 µM
[14] = second compound 0.316 µM, first compound 0.1 µM
[15] = second compound 0.316 µM, first compound 0.316 µM
[16] = second compound 0.316 µM, first compound 1 µM
[17] = second compound 0.316 µM, first compound 3.16 µM
[18] = second compound 0.316 µM, first compound 10 µM
[19] = second compound 1 µM, first compound 0.0316 µM
[20] = second compound 1 µM, first compound 0.1 µM
[21] = second compound 1 µM, first compound 0.316 µM
[22] = second compound 1 µM, first compound 1 µM
[23] = second compound 1 µM, first compound 3.16 µM
[24] = second compound 1 µM, first compound 10 µM
[25] = second compound 3.16 µM, first compound 0.0316 µM
[26] = second compound 3.16 µM, first compound 0.1 µM
[27] = second compound 3.16 µM, first compound 0.316 µM
[28] = second compound 3.16 µM, first compound 1 µM
[29] = second compound 3.16 µM, first compound 3.16 µM
[30] = second compound 3.16 µM, first compound 10 µM
[31] = second compound 10 µM, first compound 0.0316 µM
[32] = second compound 10 µM, first compound 0.1 µM
[33] = second compound 10 µM, first compound 0.316 µM
[34] = second compound 10 µM, first compound 1 µM
[35] = second compound 10 µM, first compound 3.16 µM
[36] = second compound 10 µM, first compound 10 µM
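Further: spheroids exposed to drugs for 7 days.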
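Wherever viability, T/C is given: 100% = DMSO vehicle treated spheroids.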

Structure (SMILES): COc1cccc2c1C(=O)c1c(O)c3c(c(O)c1C2=O)CC(O)(C(=O)CO)CC3OC1CC(N)C(O)C(C)O1 (stereo unspecified) + COC1C(OC(N)=O)C(O)C(Oc2ccc3c(O)c(NC(=O)c4ccc(O)c(CC=C(C)C)c4)c(=O)oc3c2C)OC1(C)C
- IC50 (second compound 0.0316 µM): < 31.6 nM
- IC50 (second compound 0.1 µM): < 31.6 nM
- IC50 (second compound 0.316 µM): < 31.6 nM
- IC50 (second compound 1 µM): < 31.6 nM
- IC50 (second compound 3.16 µM): < 31.6 nM
- IC50 (second compound 10 µM): < 31.6 nM
- viability, T/C [1]: 30%
- viability, T/C [2]: 9.63%
- viability, T/C [3]: 3%
- viability, T/C [4]: 2.19%
- viability, T/C [5]: 0.88%
- viability, T/C [6]: 1.18%
- viability, T/C [7]: 38.2%
- viability, T/C [8]: 11.2%
- viability, T/C [9]: 1.88%
- viability, T/C [10]: 1.88%
- viability, T/C [11]: 1.36%
- viability, T/C [12]: 0.62%
- viability, T/C [13]: 29.7%
- viability, T/C [14]: 8.65%
- viability, T/C [15]: 5.33%
- viability, T/C [16]: 1.37%
- viability, T/C [17]: 0.61%
- viability, T/C [18]: 1.78%
- viability, T/C [19]: 38.5%
- viability, T/C [20]: 21.4%
- viability, T/C [21]: 2.96%
- viability, T/C [22]: 0.39%
- viability, T/C [23]: 0.88%
- viability, T/C [24]: 0.7%
- viability, T/C [25]: 29.7%
- viability, T/C [26]: 7.94%
- viability, T/C [27]: 3.1%
- viability, T/C [28]: 0.41%
- viability, T/C [29]: 0.77%
- viability, T/C [30]: 0.92%
- viability, T/C [31]: 29.2%
- viability, T/C [32]: 9.79%
- viability, T/C [33]: 2.2%
- viability, T/C [34]: 0.59%
- viability, T/C [35]: 1.28%
- viability, T/C [36]: 0.88%

Structure (SMILES): O=C(c1cc(Cc2n[nH]c(=O)c3ccccc23)ccc1F)N1CCN(C(=O)C2CC2)CC1 + Cc1cccc(N(C)C(=O)C2C(O)CCN2c2nc(C)cc(C(F)(F)F)c2C#N)c1
- IC50 (second compound 0.0316 µM): 6120 nM
- IC50 (second compound 0.1 µM): 4160 nM
- IC50 (second compound 0.316 µM): 8940 nM
- IC50 (second compound 1 µM): 6770 nM
- IC50 (second compound 3.16 µM): 4890 nM
- IC50 (second compound 10 µM): > 10000 nM
- viability, T/C [1]: 103%
- viability, T/C [2]: 92.8%
- viability, T/C [3]: 82.3%
- viability, T/C [4]: 94.2%
- viability, T/C [5]: 80.2%
- viability, T/C [6]: 27.3%
- viability, T/C [7]: 100%
- viability, T/C [8]: 105%
- viability, T/C [9]: 89.9%
- viability, T/C [10]: 69.6%
- viability, T/C [11]: 57.9%
- viability, T/C [12]: 35.9%
- viability, T/C [13]: 106%
- viability, T/C [14]: 95.3%
- viability, T/C [15]: 82.5%
- viability, T/C [16]: 86.8%
- viability, T/C [17]: 92%
- viability, T/C [18]: 45.5%
- viability, T/C [19]: 79.7%
- viability, T/C [20]: 102%
- viability, T/C [21]: 81.7%
- viability, T/C [22]: 84.3%
- viability, T/C [23]: 75.6%
- viability, T/C [24]: 37%
- viability, T/C [25]: 105%
- viability, T/C [26]: 97.6%
- viability, T/C [27]: 79.5%
- viability, T/C [28]: 88.3%
- viability, T/C [29]: 56.8%
- viability, T/C [30]: 33.3%
- viability, T/C [31]: 110%
- viability, T/C [32]: 93.4%
- viability, T/C [33]: 83.3%
- viability, T/C [34]: 78%
- viability, T/C [35]: 77.5%
- viability, T/C [36]: 56.1%

Structure (SMILES): CC[C@@]1(O)C(=O)OCc2c1cc1n(c2=O)Cc2cc3c(CN(C)C)c(O)ccc3nc2-1 + COC1C(OC(N)=O)C(O)C(Oc2ccc3c(O)c(NC(=O)c4ccc(O)c(CC=C(C)C)c4)c(=O)oc3c2C)OC1(C)C
- IC50 (second compound 0.0316 µM): 21.2 nM
- IC50 (second compound 0.1 µM): 19.8 nM
- IC50 (second compound 0.316 µM): 21.4 nM
- IC50 (second compound 1 µM): 20.5 nM
- IC50 (second compound 3.16 µM): 17.7 nM
- IC50 (second compound 10 µM): 20.2 nM
- viability, T/C (second compound 0.0316 µM, first compound 0.000316 µM): 107%
- viability, T/C (second compound 0.0316 µM, first compound 0.001 µM): 69.1%
- viability, T/C (second compound 0.0316 µM, first compound 0.00316 µM): 117%
- viability, T/C (second compound 0.0316 µM, first compound 0.01 µM): 77.8%
- viability, T/C [1]: 34.3%
- viability, T/C [2]: 7.91%
- viability, T/C (second compound 0.1 µM, first compound 0.000316 µM): 91.4%
- viability, T/C (second compound 0.1 µM, first compound 0.001 µM): 101%
- viability, T/C (second compound 0.1 µM, first compound 0.00316 µM): 109%
- viability, T/C (second compound 0.1 µM, first compound 0.01 µM): 79.2%
- viability, T/C [7]: 29.4%
- viability, T/C [8]: 8%
- viability, T/C (second compound 0.316 µM, first compound 0.000316 µM): 96.6%
- viability, T/C (second compound 0.316 µM, first compound 0.001 µM): 99.6%
- viability, T/C (second compound 0.316 µM, first compound 0.00316 µM): 91.3%
- viability, T/C (second compound 0.316 µM, first compound 0.01 µM): 86%
- viability, T/C [13]: 31.5%
- viability, T/C [14]: 11.3%
- viability, T/C (second compound 1 µM, first compound 0.000316 µM): 118%
- viability, T/C (second compound 1 µM, first compound 0.001 µM): 107%
- viability, T/C (second compound 1 µM, first compound 0.00316 µM): 100%
- viability, T/C (second compound 1 µM, first compound 0.01 µM): 81.5%
- viability, T/C [19]: 30.4%
- viability, T/C [20]: 15.1%
- viability, T/C (second compound 3.16 µM, first compound 0.000316 µM): 92.7%
- viability, T/C (second compound 3.16 µM, first compound 0.001 µM): 86.5%
- viability, T/C (second compound 3.16 µM, first compound 0.00316 µM): 77%
- viability, T/C (second compound 3.16 µM, first compound 0.01 µM): 73.1%
- viability, T/C [25]: 28%
- viability, T/C [26]: 10.2%
- viability, T/C (second compound 10 µM, first compound 0.000316 µM): 85.5%
- viability, T/C (second compound 10 µM, first compound 0.001 µM): 86.9%
- viability, T/C (second compound 10 µM, first compound 0.00316 µM): 85.4%
- viability, T/C (second compound 10 µM, first compound 0.01 µM): 81%
- viability, T/C [31]: 30.3%
- viability, T/C [32]: 8.24%
